{"source": "patent US10899795B2", "about": "“Modified epitopes for boosting CD4+ T-cell responses” (Katholieke Universiteit Leuven, priority 2012, dated 2021)", "key": {"[1]": {"system": "p21-35 (SEQ ID NO:3)-specific CD4+ T cell clone", "test": "Proliferation of Der p2 p21-35-specific CD4+ T cell clone with peptide-loaded antigen-presenting cells (3H-thymidine incorporation)", "format": "cell-based, BALB/c mice", "conditions": "peptide 0.1 μM loaded on T cell-depleted mitomycin C-treated splenocytes; compared with p21-35 wildtype sequence (SEQ ID NO:3); 48 h + 18 h 3H-thymidine"}, "CD4+ T cells": {"system": "CD4+ T cells", "test": "Proliferation of CD4+ T cells stimulated with ALK peptide-loaded dendritic cells (tritiated thymidine incorporation)", "format": "cell-based, C57BL/6 mice", "conditions": "four cycles of stimulation with 20 μg peptide; restimulation with 1 μM or 10 μM peptide of SEQ ID NO:14; compared with stimulation by SEQ ID NO:14"}, "[2]": {"system": "NPM-ALK tumor cells (R80 NPM-ALK cells, H-2b-restricted)", "test": "Growth of NPM-ALK tumor in mice preimmunized with peptide on alum", "format": "in vivo, C57BL/6 mice", "conditions": "50 μg peptide on alum, 4 times at 10-day intervals, before s.c. inoculation of 2×10^6 tumor cells; difference at day 20 p<0.008 (Mann-Whitney U test)"}, "[3]": {"system": "ALK-specific CD4+ T cells", "test": "Activation of ALK-specific CD4+ T cells"}, "G121 CD4+ T cell clone": {"system": "G121 CD4+ T cell clone", "test": "FACS detection of CFSE-labeled G121 CD4+ T cell clone in immunized mice", "format": "in vivo, BALB/c mice", "conditions": "one day after i.v. injection of 200,000 cells per mouse in immunized mice"}, "G121 TCR": {"system": "G121 TCR", "test": "FACS detection of serum antibodies to G121 TCR in immunized mice", "format": "in vivo, BALB/c mice", "conditions": "G121 cells incubated with serum dilution, then FITC-labeled anti-mouse Fcgamma antibody"}, "[4]": {"system": "macrophages presenting Ag85b derived epitopes", "format": "cell-based, C57BL/6 mice"}, "[5]": {"test": "Direct binding ELISA of antibodies in blood of immunized BO2C11 BCR mice", "format": "in vivo", "conditions": "mice immunized with 50 μg peptide on alum on 4 occasions at 10-day intervals", "text": "(§1) A mouse strain was created which expresses the BO2C11 molecule as a B cell receptor. […] Mice were then bled and tested for the presence of antibodies recognizing the peptide of SEQ ID NO:10 and the BO2C11 antibody, as assess by direct binding ELISA."}, "BO2C11 antibody": {"system": "BO2C11 antibody", "test": "Direct binding ELISA of antibodies in blood of immunized BO2C11 BCR mice", "format": "in vivo", "conditions": "mice immunized with 50 μg peptide on alum on 4 occasions at 10-day intervals", "text": "as §1"}, "[6]": {"system": "B cells expressing the BO2C11 BCR", "test": "FACS for BO2C11 BCR on circulating, splenic and bone marrow B cells of immunized mice", "format": "in vivo", "method": "as §1, with “ELISA. […] Furthermore, the presence of the BO2C11 BCR on circulating, splenic and bone marrow B cells was evaluated by FACS using an anti-human Fc-gamma antibody.” for “ELISA.”"}}, "note": "“Also recorded” adds a separate entry of the source.", "data": [{"substance": "AHGSEPCIIHRGKPF (Der p2 amino acids 21-35 with mutation c21A) [SEQ ID NO:4, p21-35 peptide with cysteine in P(-4) substituted by alanine]", "values": [{"measurement": "reduction of the proliferative response of the specific T cell clone", "setting": "[1]", "value": 70, "unit": "%"}]}, {"substance": "CGG WTGPGAGPR (CGGWTGPGAGPR; amino acids 1544-1555 of ALK protein preceded by cysteine) [SEQ ID NO:15, ALK peptide with a single cysteine added at position 1544]", "values": [{"measurement": "proliferation rate of CD4+ T cells (incorporation of tritiated thymidine)", "setting": "CD4+ T cells", "value": "significantly increased"}]}, {"substance": "YCTQDPDVINTA (ALK-epitope) [SEQ ID NO:5]", "values": [{"measurement": "tumor growth in preimmunized mice versus control group not preimmunized", "setting": "[2]", "value": "very much reduced"}, {"measurement": "activation of ALK-specific (class II-restricted) CD4+ T cells", "setting": "[3]", "value": "boost the activation; also recorded: increased activation properties"}]}, {"substance": "CQTA VYFCASSER TGG (CQTAVYFCASSERTGG; amino acids 103-117 of VH of anti-Der p2 CD4+ T-cell clone G121 preceded by cysteine) [SEQ ID NO:13]", "values": [{"measurement": "residual CFSE-labeled G121 cells in peripheral blood or spleen (FACS)", "setting": "G121 CD4+ T cell clone", "value": "no residual G121 cells"}, {"measurement": "antibodies to G121 TCR in serum of immunized mice (FACS)", "setting": "G121 TCR", "value": "contains antibodies to G121 TCR"}]}, {"substance": "CSWE YWGAQLNAM [SEQ ID NO:7]", "values": [{"measurement": "macrophage lysis (51Cr release)", "setting": "[4]", "value": "significant degree of macrophage lysis"}]}, {"substance": "CAVY YCAVPDPDA FDI (CAVYYCAVPDPDAFDI; amino acids 111-125 of VH of human anti-factor VIII antibody BO2C11 preceded by cyteine) [SEQ ID NO:11]", "values": [{"measurement": "antibodies to the peptide of SEQ ID 10 (direct binding ELISA)", "setting": "[5]", "value": "High concentrations of antibodies"}, {"measurement": "antibodies to the BO2C11 antibody (direct binding ELISA)", "setting": "BO2C11 antibody", "value": "High concentrations of antibodies"}, {"measurement": "B cells expressing the transgenic BCR in circulation, spleen or bone marrow (FACS, anti-human Fc-gamma antibody)", "setting": "[6]", "value": "no B cells expressing the transgenic BCR"}]}, {"substance": "YWGAQLNAM [SEQ ID NO:6, reference compound]", "values": [{"measurement": "macrophage lysis (51Cr release)", "setting": "[4]", "value": "not"}]}]}
